Experimental data published in ChEMBL document CHEMBL1201862, “PubChem BioAssay data set” (2004).
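Compound exposure: 48 hours, 5 concentrations, 96-well plates. GI50 is the concentration that inhibits growth by half.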 The source made the active and inactive calls. Cut-off read from the data, not from the text of the source: active = GI50 up to about 1.1 µM and inactive = higher.

Tests used:
Assay in all cases: NCI anticancer screen, dose series, 48 h
EKVX = test system: EKVX
SF-268 = test system: SF-268
A498 = test system: A498
NCI-H23 = test system: NCI-H23
NCI-H226 = test system: NCI-H226
CAKI-1 = test system: CAKI-1
MDA-N = test system: MDA-N
RXF 393 = test system: RXF 393
HCT-116 = test system: HCT-116
HCT-15 = test system: HCT-15
U-251 = test system: U-251
DU-145 = test system: DU-145
UO-31 = test system: UO-31
OVCAR-4 = test system: OVCAR-4
SN12C = test system: SN12C
MCF7 = test system: MCF7
MOLT-4 = test system: MOLT-4
Malme-3M = test system: Malme-3M
NCI-H460 = test system: NCI-H460
HCC 2998 = test system: HCC 2998

| Compound | GI50 (EKVX) | GI50 (SF-268) | GI50 (A498) | GI50 (NCI-H23) | GI50 (NCI-H226) | GI50 (CAKI-1) | GI50 (MDA-N) | GI50 (RXF 393) | GI50 (HCT-116) | GI50 (HCT-15) [µM] | GI50 (U-251) | GI50 (DU-145) | GI50 (UO-31) | GI50 (OVCAR-4) | GI50 (SN12C) | GI50 (MCF7) | GI50 (MOLT-4) | GI50 (Malme-3M) | GI50 (NCI-H460) | GI50 (HCC 2998) |
| --- | --- | --- | --- | --- | --- | --- | --- | --- | --- | --- | --- | --- | --- | --- | --- | --- | --- | --- | --- | --- |
| N#Cc1c(C#N)c(-c2ccccc2)n(-c2ccccc2)c1N | 73.8 µM (inactive) | 88.3 µM (inactive) | > 100 µM (inactive) | 80.7 µM (inactive) | 72.4 µM (inactive) | > 100 µM (inactive) | > 100 µM (inactive) | 41.6 µM (inactive) | 5.51 µM (inactive) | > 100 | 33.4 µM (inactive) | 85.7 µM (inactive) | 12.8 µM (inactive) | 56.2 µM (inactive) | > 100 µM (inactive) | > 100 µM (inactive) | 60.3 µM (inactive) | > 100 µM (inactive) | – | – |
| COCc1nc2c(OC)c(-c3nc4ccc(N5CCN(C)CC5)cc4[nH]3)cc(OC)c2[nH]1 | 99.8 µM (inactive) | > 100 µM (inactive) | > 100 µM (inactive) | 83.4 µM (inactive) | > 100 µM (inactive) | 41.7 µM (inactive) | 33.1 µM (inactive) | 14.3 µM (inactive) | 30.8 µM (inactive) | 56.1 | 42 µM (inactive) | 31.3 µM (inactive) | 31.2 µM (inactive) | 59.2 µM (inactive) | 43.9 µM (inactive) | 35.6 µM (inactive) | 41.1 µM (inactive) | 16.9 µM (inactive) | 36.7 µM (inactive) | – |
| COc1cc(CC2C(=O)OCC2Cc2ccc(OC)c(OC)c2)ccc1O (configuration not stated) | > 27.8 µM (inactive) | > 100 µM (inactive) | > 100 µM (inactive) | 10.9 µM (inactive) | > 100 µM (inactive) | > 100 µM (inactive) | > 100 µM (inactive) | > 100 µM (inactive) | > 100 µM (inactive) | > 100 | > 100 µM (inactive) | > 100 µM (inactive) | > 100 µM (inactive) | > 100 µM (inactive) | > 100 µM (inactive) | > 100 µM (inactive) | 4.76 µM (inactive) | > 100 µM (inactive) | > 100 µM (inactive) | – |
| Nc1cnc(Nc2cccc3ccccc23)o1 | > 10 µM (inactive) | > 10 µM (inactive) | > 10 µM (inactive) | > 10 µM (inactive) | > 10 µM (inactive) | > 10 µM (inactive) | > 10 µM (inactive) | > 10 µM (inactive) | > 10 µM (inactive) | > 10 | > 10 µM (inactive) | > 10 µM (inactive) | > 10 µM (inactive) | > 10 µM (inactive) | > 10 µM (inactive) | > 10 µM (inactive) | – | > 10 µM (inactive) | > 10 µM (inactive) | > 10 µM (inactive) |
| CN(C)CCCNc1c2c(=O)n(C)c(=O)nc-2n(C)c2ccccc12 | 6.43 µM (inactive) | 5.38 µM (inactive) | 9.27 µM (inactive) | 7.41 µM (inactive) | 5.07 µM (inactive) | 7.13 µM (inactive) | 4.2 µM (inactive) | 7.8 µM (inactive) | 3.69 µM (inactive) | 20.1 | 3.26 µM (inactive) | 6.41 µM (inactive) | 4.51 µM (inactive) | 4.72 µM (inactive) | 4.43 µM (inactive) | 3.82 µM (inactive) | 3.01 µM (inactive) | 3.11 µM (inactive) | 2.85 µM (inactive) | – |
| CCC1CC(C)C(O)/C=C/C=C/CC(C)OC(=O)CC(O)C(OC)C1OC1OC(C)CC(O)(C(C)=O)C1O (configuration not stated) | 57.7 µM (inactive) | 83.6 µM (inactive) | 77.4 µM (inactive) | 45.2 µM (inactive) | 47.6 µM (inactive) | 13.1 µM (inactive) | 36.4 µM (inactive) | 44.7 µM (inactive) | > 100 µM (inactive) | 23.9 | 60.4 µM (inactive) | 96.6 µM (inactive) | 47.3 µM (inactive) | 8.47 µM (inactive) | 42.1 µM (inactive) | 40.3 µM (inactive) | 21.7 µM (inactive) | 38.8 µM (inactive) | – | 21.7 µM (inactive) |
| OCCC/N=C1N=C(Cl)/C(=C\c2ccccc2)N\1 | > 100 µM (inactive) | > 100 µM (inactive) | > 100 µM (inactive) | > 100 µM (inactive) | > 100 µM (inactive) | > 100 µM (inactive) | > 100 µM (inactive) | > 100 µM (inactive) | > 100 µM (inactive) | > 100 | > 100 µM (inactive) | > 100 µM (inactive) | > 100 µM (inactive) | > 100 µM (inactive) | > 100 µM (inactive) | > 100 µM (inactive) | > 100 µM (inactive) | > 100 µM (inactive) | – | > 100 µM (inactive) |
| O=C1C=CC2(C=C1)O[C@H](COCc1ccccc1)[C@@H](COCc1ccccc1)O2 | 1.59 µM (inactive) | 1.64 µM (inactive) | 19.9 µM (inactive) | 1.77 µM (inactive) | 1.82 µM (inactive) | 2.24 µM (inactive) | 1.52 µM (inactive) | 0.2 µM (active) | 0.235 µM (active) | 1.24 | 1.92 µM (inactive) | 2.7 µM (inactive) | 1.57 µM (inactive) | 2.23 µM (inactive) | 1.65 µM (inactive) | 0.313 µM (active) | 0.371 µM (active) | 2.54 µM (inactive) | 18.8 µM (inactive) | – |
| O=C1C=Cc2c(Br)sc(Br)c21 | 26.1 µM (inactive) | 30.5 µM (inactive) | > 100 µM (inactive) | 26.7 µM (inactive) | – | 19.6 µM (inactive) | 30.1 µM (inactive) | 24.3 µM (inactive) | 29.1 µM (inactive) | 26.2 | 18.5 µM (inactive) | 43.8 µM (inactive) | 17.7 µM (inactive) | – | 39.8 µM (inactive) | 19.3 µM (inactive) | 13.5 µM (inactive) | 23.1 µM (inactive) | 32.3 µM (inactive) | 15.2 µM (inactive) |
| CN1CCN(Cn2nc(-c3ccccc3)n(/N=C/c3ccc(-c4ccc(Cl)cc4Cl)o3)c2=S)CC1 | 30.1 µM (inactive) | 5.83 µM (inactive) | 26 µM (inactive) | 18.7 µM (inactive) | 20 µM (inactive) | 7.36 µM (inactive) | 13.4 µM (inactive) | 4.22 µM (inactive) | 3.66 µM (inactive) | 4.18 | 5.25 µM (inactive) | 8.91 µM (inactive) | 14.8 µM (inactive) | 16.3 µM (inactive) | – | 12.4 µM (inactive) | 0.0713 µM (active) | – | 5.61 µM (inactive) | 12.8 µM (inactive) |
| C/C(=N\C1CCCCC1)c1ccccc1O | > 100 µM (inactive) | > 100 µM (inactive) | > 100 µM (inactive) | > 100 µM (inactive) | > 100 µM (inactive) | > 100 µM (inactive) | > 100 µM (inactive) | > 100 µM (inactive) | > 100 µM (inactive) | > 100 | > 100 µM (inactive) | > 100 µM (inactive) | > 100 µM (inactive) | > 100 µM (inactive) | > 100 µM (inactive) | > 100 µM (inactive) | > 100 µM (inactive) | > 100 µM (inactive) | > 100 µM (inactive) | – |
| O/N=C(/CC(O)(C(F)(F)F)C(F)(F)F)c1ccccc1 | > 10 µM (inactive) | > 10 µM (inactive) | > 10 µM (inactive) | > 10 µM (inactive) | > 10 µM (inactive) | > 10 µM (inactive) | > 10 µM (inactive) | > 10 µM (inactive) | > 10 µM (inactive) | > 10 | > 10 µM (inactive) | > 10 µM (inactive) | – | > 10 µM (inactive) | > 10 µM (inactive) | > 10 µM (inactive) | > 10 µM (inactive) | > 10 µM (inactive) | > 10 µM (inactive) | > 10 µM (inactive) |
| N#CCOc1ccc(/C=C/C(=O)c2ccc(Cl)cc2)cc1 | 39.6 µM (inactive) | 33.9 µM (inactive) | 20.8 µM (inactive) | 24.8 µM (inactive) | > 100 µM (inactive) | – | 32.4 µM (inactive) | 17.5 µM (inactive) | 6.65 µM (inactive) | 77.6 | 25.8 µM (inactive) | 66.4 µM (inactive) | 32.8 µM (inactive) | 34.9 µM (inactive) | 39.8 µM (inactive) | 11.4 µM (inactive) | 19.6 µM (inactive) | 28 µM (inactive) | 27.2 µM (inactive) | 31.7 µM (inactive) |
| OCCNc1ncnc2c1ncn2C1OC(CO)C(O)C1O (configuration not stated) | > 100 µM (inactive) | 91.6 µM (inactive) | 57.7 µM (inactive) | > 100 µM (inactive) | – | > 100 µM (inactive) | > 100 µM (inactive) | > 100 µM (inactive) | 70.5 µM (inactive) | 42.5 | > 100 µM (inactive) | 19.3 µM (inactive) | 57.4 µM (inactive) | > 100 µM (inactive) | 80.5 µM (inactive) | 39.4 µM (inactive) | 0.224 µM (active) | > 100 µM (inactive) | 87.9 µM (inactive) | 64.9 µM (inactive) |
| CC1=C(CO)C(=O)O[C@@H]([C@@H](C)[C@H]2CC[C@H]3[C@@H]4C[C@@H](O)[C@@]5(O)CC=CC(=O)[C@]5(C)[C@H]4CC[C@]23C)C1 [JABOROSALACTONE D] | 49.2 µM (inactive) | 92.3 µM (inactive) | 18.7 µM (inactive) | 21.2 µM (inactive) | 35.8 µM (inactive) | > 100 µM (inactive) | 45 µM (inactive) | 22.3 µM (inactive) | 20.5 µM (inactive) | 16.4 | 37 µM (inactive) | 35.2 µM (inactive) | – | 32.2 µM (inactive) | 42.4 µM (inactive) | 39.7 µM (inactive) | 26.6 µM (inactive) | 15.7 µM (inactive) | 19.1 µM (inactive) | 30.3 µM (inactive) |
